Assay results published in patent US11702418B2, “SOS1 inhibitors” (priority 2019, dated 2023).
Where a name gives a salt, the structure may show the parent alone. Read-outs that look alike come from different tables or passages of the source.

Tests used:
[1] = biological target: recombinant human SOS1 polypeptide (amino acids 560-1049) (Homo sapiens (Human), UniProt Q07889); test: biochemical; format: binding
pERK in MKN1 cells = test: cells; format: cell-based; details: Homo sapiens
Procedure: The cells were incubated for approximately 0.5-1 hour with the compounds solubilized in DMSO at 37° C. Cells were immediately fixed by adding 50 μL of 4% formaldehyde to all wells in a fume hood and the plates were incubated for 20 minutes at room temperature. The formaldehyde was discarded from the plates and 150 μL of ice-cold methanol was added to permeabilize the cells for 10 minutes at −20° C. The methanol was discarded from each of the plates and any liquid remaining in the plate by tapping the plate against paper towels. […] The plates were incubated overnight at 4° C. on a shaker.
On Assay day 2, the primary antibody solution was removed. […] The secondary antibody solution as removed and each plate was washed with PBST 3× times. Any liquid remaining was discarded and the plate was imaged using the Licor Odyssey machine according to the manufacturer's instruction, using a set focus length at 3 mm and both 800 nm and 700 nm filters. The GAPDH normalized scan values for each well were divided by the average of vehicle wells to get the % of pERK inhibition. The IC50 values were then calculated with the Graph pad Prism software.

[2] = HTRF displacement, Cy5 labelled tracer, Morrison equation for competitive binding, read-out: Ki, Inhibition of Labeled Tracer Binding to SOS1
[3] = MKN-1, pERK inhibition, In-Cell Western, MKN1 or H358 cells (Table 24 does not say which), 0.5-1 hour incubation, read-out: IC50
[4] = read-out: Ki, Inhibition of Labeled Tracer Binding to SOS1
[5] = MKN-1, pERK inhibition, In-Cell Western, MKN1 or H358 cells (Table 24 does not say which), 0.5-1 hour incubation

Sequence of recombinant human SOS1 polypeptide (amino acids 560-1049) (Q07889 560-1049): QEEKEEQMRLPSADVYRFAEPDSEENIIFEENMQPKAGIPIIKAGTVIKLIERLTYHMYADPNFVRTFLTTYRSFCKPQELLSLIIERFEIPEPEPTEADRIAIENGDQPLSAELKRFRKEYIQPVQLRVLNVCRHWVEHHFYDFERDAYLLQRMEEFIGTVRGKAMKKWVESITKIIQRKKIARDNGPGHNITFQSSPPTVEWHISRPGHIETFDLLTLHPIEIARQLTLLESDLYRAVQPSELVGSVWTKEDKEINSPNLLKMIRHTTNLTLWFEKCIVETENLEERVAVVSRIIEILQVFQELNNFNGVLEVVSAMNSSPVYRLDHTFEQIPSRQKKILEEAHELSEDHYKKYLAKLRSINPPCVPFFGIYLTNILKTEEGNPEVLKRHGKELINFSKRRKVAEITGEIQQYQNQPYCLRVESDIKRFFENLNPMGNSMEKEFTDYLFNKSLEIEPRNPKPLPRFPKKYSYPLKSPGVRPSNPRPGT

SMILES	Ki [1, 2] [µM]	IC50 (pERK in MKN1 cells; [3]) [µM]	other results
Cc1c([C@@H](C)Nc2nnc(C)c3ccc(OC4COC4)cc23)cccc1C(F)(F)F [Example 13-2, (R)-4-methyl-N-(1-(2-methyl-3-(trifluoromethyl)phenyl)ethyl)-7-(oxetan-3-yloxy)phthalazin-1-amine]	0.191	2.07	–
Cc1c(F)cccc1[C@@H](C)Nc1nnc(C)c2cnc(N3CC(C)(N(C)C)C3)cc12 [Example 12-82]	0.0209	0.33	–
Cc1c([C@@H](C)Nc2nnc(C)c3cc(F)c(N4CCOCC4)cc23)cccc1C(F)(F)F [Example 18-2, (R)-6-fluoro-4-methyl-N-(1-(2-methyl-3-(trifluoromethyl)phenyl)ethyl)-7-morpholinophthalazin-1-amine]	–	–	Ki [1, 4]: 0.00527 µM; IC50 (pERK in MKN1 cells; [5]): 0.38 µM
Cc1c([C@@H](C)Nc2nncc3ccc(OC4CCN(C)CC4)cc23)cccc1C(F)(F)F [Example 2-6, (R)-N-(1-(2-methyl-3-(trifluoromethyl)phenyl)ethyl)-7-((1-methylpiperidin-4-yl)oxy)phthalazin-1-amine]	0.0021	0.083	–
Cc1nnc(N[C@H](C)c2cc(O)cc(C(F)(F)F)c2)c2cc(N3CCOCC3)ncc12 [Example 21-1, (R)-3-(1-((4-methyl-7-morpholinopyrido[3,4-d]pyridazin-1-yl)amino)ethyl)-5-(trifluoromethyl)phenol]	0.00293	0.077	–
Cc1c([C@@H](C)Nc2nncc3ccc(O[C@H]4CC[C@H](N(C)C)C4)cc23)cccc1C(F)(F)F [Example 2-11, 7-(((trans)-3-(dimethylamino)cyclopentyl)oxy)-N-((R)-1-(2-methyl-3-(trifluoromethyl)phenyl)ethyl)phthalazin-1-amine]	0.00283	0.243	–
Cc1c([C@@H](C)Nc2nncc3ccc(N4CCN(C)C(CF)C4)cc23)cccc1C(F)(F)F (stereo partly drawn) [Example 1-43, 7-(3-(fluoromethyl)-4-methylpiperazin-1-yl)-N-((R)-1-(2-methyl-3-(trifluoromethyl)phenyl)ethyl)phthalazin-1-amine]	0.00136	0.216	–
Cc1nnc(N[C@H](C)c2cccc(C(F)(F)F)c2F)c2cc(N3CCC(N(C)C)CC3)ncc12 [Example 12-64]	0.00051	0.029	–
Cc1c([C@@H](C)Nc2nncc3ccc(N4CCC5CCN(C)C5C4)cc23)cccc1C(F)(F)F (stereo partly drawn) [Example 1-33, N-((R)-1-(2-methyl-3-(trifluoromethyl)phenyl)ethyl)-7-(1-methyloctahydro-6H-pyrrolo[2,3-c]pyridin-6-yl)phthalazin-1-amine]	0.0007	0.109	–
Cc1c(C#N)cccc1[C@@H](C)Nc1nnc(C)c2cnc(N3C[C@H]4C[C@@H]3CO4)cc12 [Example 12-24]	0.00124	0.038	–
Cc1c(C#N)cccc1[C@@H](C)Nc1nnc(C)c2ccc(N3C[C@H]4CC[C@@H]3CN4C)cc12 [Example 10-71, 2-methyl-3-((R)-1-((4-methyl-7-((1R,4R)-5-methyl-2,5-diazabicyclo[2.2.2]octan-2-yl)phthalazin-1-yl)amino)ethyl)benzonitrile]	0.00039	0.019	–
Cc1ncccc1[C@@H](C)Nc1nnc(C)c2ccc(N3CCOCC3)cc12 [Example 10-72, (R)-4-methyl-N-(1-(2-methylpyridin-3-yl)ethyl)-7-morpholinophthalazin-1-amine]	0.0461	0.466	–
Cc1c(C#N)cccc1[C@@H](C)Nc1nnc(C)c2cnc(N3CCC(N(C)C)CC3)cc12 [Example 12-28]	0.00153	0.017	–
Cc1c(C#N)cccc1[C@@H](C)Nc1nnc(C)c2ccc(N3CCN4CCOC[C@@H]4C3)cc12 [Example 10-56, 3-((R)-1-((7-((S)-hexahydropyrazino[2,1-c][1,4]oxazin-8(1H)-yl)-4-methylphthalazin-1-yl)amino)ethyl)-2-methylbenzonitrile Formate salt]	–	–	Ki [1, 4]: 0.00159 µM; IC50 (pERK in MKN1 cells; MKN-1): 0.026 µM
Cc1c(C#N)cccc1[C@@H](C)Nc1nnc(C)c2cnc(N3CCN(C)CC3)cc12 [Example 12-44]	0.00116	0.038	–
Cc1nnc(N[C@H](C)c2cccc(C(F)(F)C(C)(C)O)c2F)c2cc(N3CCN4CCOC[C@@H]4C3)ncc12 [Example 20-2, 1,1-difluoro-1-(2-fluoro-3-((R)-1-((7-((S)-hexahydropyrazino[2,1-c][1,4]oxazin-8(1H)-yl)-4-methylpyrido[3,4-d]pyridazin-1-yl)amino)ethyl)phenyl)-2-methylpropan-2-ol]	0.00075	0.008	–
COc1c(C#N)cccc1[C@@H](C)Nc1nnc(C)c2cnc(N3CCOCC3)cc12 [Example 17-1, (R)-2-methoxy-3-(1-((4-methyl-7-morpholinopyrido[3,4-d]pyridazin-1-yl)amino)ethyl)benzonitrile]	–	–	Ki [1]: 0.00433 µM; IC50 (pERK in MKN1 cells; [5]): 0.03 µM

SMILES	Ki [1, 2] [µM]	IC50 (pERK in MKN1 cells; [3]) [µM]	other results
Cc1c([C@@H](C)Nc2nnc(C)c3ccc(N4C[C@@H]5CC[C@H]4CN5C)cc23)cccc1C(F)(F)F [Example 10-31, 4-methyl-N-((R)-1-(2-methyl-3-(trifluoromethyl)phenyl)ethyl)-7-((1S,4S)-5-methyl-2,5-diazabicyclo[2.2.2]octan-2-yl)phthalazin-1-amine]	0.00035	3.58	–
Cc1c([C@@H](C)Nc2nnc(C)c3cnc(N4CC(C)(N(C)C)C4)cc23)cccc1C(F)(F)F [Example 12-19]	0.001	0.059	–
Cc1c(C#N)cccc1[C@@H](C)Nc1nnc(C)c2ccc(N3CC4(COCCN4C)C3)cc12 [Example 10-79, (R)-2-methyl-3-(1-((4-methyl-7-(5-methyl-8-oxa-2,5-diazaspiro[3.5]nonan-2-yl)phthalazin-1-yl)amino)ethyl)benzonitrile Formate salt]	–	–	Ki [1, 4]: 0.00415 µM; IC50 (pERK in MKN1 cells; MKN-1): 0.016 µM
Cc1c([C@@H](C)Nc2nnc(C)c3ccc(N4CCS(=O)(=O)CC4)cc23)cccc1C(F)(F)F [Example 10-23, (R)-4-(1-methyl-4-((1-(2-methyl-3-(trifluoromethyl)phenyl)ethyl)amino)phthalazin-6-yl)thiomorpholine 1,1-dioxide]	0.00042	0.019	–
Cc1c(C#N)cccc1[C@@H](C)Nc1nnc(C)c2cnc(N(C)C)cc12 [Example 12-45]	0.00378	0.25	–
Cc1c(C#N)cccc1[C@@H](C)Nc1nnc(C)c2ccc(N3CCN4CCCC[C@@H]4C3)cc12 [Example 10-82, 2-methyl-3-((R)-1-((4-methyl-7-((R)-octahydro-2H-pyrido[1,2-a]pyrazin-2-yl)phthalazin-1-yl)amino)ethyl)benzonitrile Hydrochloride salt]	–	–	Ki [1, 4]: 0.00086 µM; IC50 (pERK in MKN1 cells; MKN-1): 0.052 µM
Cc1c([C@@H](C)Nc2nnc(C)c3ccc(OC4CCNCC4)cc23)cccc1C(F)(F)F [Example 7-2, (R)-4-methyl-N-(1-(2-methyl-3-(trifluoromethyl)phenyl)ethyl)-7-(piperidin-4-yloxy)phthalazin-1-amine]	0.00033	0.073	–
Cc1c([C@@H](C)Nc2nncc3ccc(OC4CCN(C)C4(C)C)cc23)cccc1C(F)(F)F (stereo partly drawn) [Example 2-5, N-((R)-1-(2-methyl-3-(trifluoromethyl)phenyl)ethyl)-7-((1,2,2-trimethylpyrrolidin-3-yl)oxy)phthalazin-1-amine]	0.00178	0.082	–
Cc1c([C@@H](C)Nc2nnc(C)c3ccc(N4CC(N(C)C)C4)cc23)cccc1C(F)(F)F [Example 10-46, (R)-7-(3-(dimethylamino)azetidin-1-yl)-4-methyl-N-(1-(2-methyl-3-(trifluoromethyl)phenyl)ethyl)phthalazin-1-amine formate salt]	–	–	Ki [1, 4]: 0.00113 µM; IC50 (pERK in MKN1 cells; MKN-1): 0.157 µM
Cc1c(C#N)cccc1[C@@H](C)Nc1nnc(C)c2cnc(N3CCC(C)(O)CC3)cc12 [Example 12-53]	0.00083	0.047	–
COC1(C)CN(c2cc3c(N[C@H](C)c4cccc(C(F)(F)F)c4C)nnc(C)c3cn2)C1 [Example 12-37]	0.00085	0.032	–
Cc1c([C@@H](C)Nc2nnc(C)c3cnc(N4CCS(=O)(=O)CC4)cc23)cccc1C(F)(F)F [Example 12-13]	0.00157	0.039	–
Cc1nnc(N[C@H](C)c2cccc(C(F)(F)CO)c2)c2cc(N3CCOCC3)ncc12 [Example 21-7, (R)-2,2-difluoro-2-(3-(1-((4-methyl-7-morpholinopyrido[3,4-d]pyridazin-1-yl)amino)ethyl)phenyl)ethan-1-ol]	–	–	Ki [1, 4]: 0.00071 µM; IC50 (pERK in MKN1 cells; [5]): 0.026 µM
Cc1c([C@@H](C)Nc2nnc(CN(C)C)c3ccc(N4CCOCC4)cc23)cccc1C(F)(F)F [Example 14-1, (R)-4-((dimethylamino)methyl)-N-(1-(2-methyl-3-(trifluoromethyl)phenyl)ethyl)-7-morpholinophthalazin-1-amine]	–	–	Ki [1, 4]: 0.00897 µM; IC50 (pERK in MKN1 cells; [5]): 0.068 µM
Cc1c(C#N)cccc1[C@@H](C)Nc1nnc(CN(C)C)c2cnc(N3C[C@H]4C[C@@H]3CO4)cc12 [Example 14-4, 3-((R)-1-((7-((1R,4R)-2-oxa-5-azabicyclo[2.2.1]heptan-5-yl)-4-((dimethylamino)methyl)pyrido[3,4-d]pyridazin-1-yl)amino)ethyl)-2-methylbenzonitrile]	0.00855	0.089	–
Cc1c(Cl)cccc1[C@@H](C)Nc1nnc(C)c2cnc(N3CCOCC3)cc12 [Example 6-18, (R)-N-(1-(3-chloro-2-methylphenyl)ethyl)-4-methyl-7-morpholinopyrido[3,4-d]pyridazin-1-amine]	0.317	3.7	–
Cc1nnc(N[C@H](C)c2cc(N)cc(C(F)(F)F)n2)c2cc(N3CC4(CCN(C)C4=O)C3)ncc12 [Example 16-7, (R)-2-(1-((1-(4-amino-6-(trifluoromethyl)pyridin-2-yl)ethyl)amino)-4-methylpyrido[3,4-d]pyridazin-7-yl)-6-methyl-2,6-diazaspiro[3.4]octan-5-one]	0.0788	2.9	–
